Test results taken from ChEMBL document CHEMBL4376813, “Design, synthesis and biological evaluation of AT1 receptor blockers derived from 6-substituted aminocarbonyl benzimidazoles” (Eur J Med Chem, 2019).
Activity calls are given as the source filed them. The rule behind the calls is not given here.

How the values were obtained:
[1] = Inhibition of [125I] Ang2 binding to AT1 receptor in Sprague-Dawley rat VSMC after 150 mins by gamma-counter method
Rattus norvegicus [2] = assay: […] activity in spontaneous hypertensive rat at 10 mg/kg, po after 24 hrs; format: functional, organism-based
Rattus norvegicus [3] = assay: […] activity in spontaneous hypertensive rat assessed as reduction in blood pressure at 5 to 10 mg/kg, po; format: functional, organism-based
Rattus norvegicus [4] = assay: […] activity in spontaneous hypertensive rat assessed as maximum reducing response of mean blood pressure at 10 mg/kg, po; format: functional
Rattus norvegicus [5] = assay: […] activity in spontaneous hypertensive rat assessed as reduction in blood pressure at 10 mg/kg, po; format: functional, organism-based

Compound | IC50 [1] [nM] | Ki [1] [nM] | Activity (Rattus norvegicus [2]) | Activity (Rattus norvegicus [3]) | Activity (Rattus norvegicus [4]) [mmHg] | Activity (Rattus norvegicus [5])
CCCc1nc2c(C)cc(C(=O)NCCc3ccccc3)cc2n1Cc1ccc2c(ccn2-c2ccccc2C(=O)O)c1 | 2.6 | 1.9 | Active | Active | 57.9 | –
CCCCc1nc2c(C)cc(C(=O)NCCc3ccccc3)cc2n1Cc1ccc2c(ccn2-c2ccccc2C(=O)O)c1 | 3.7 | 2.7 | – | Active | – | –
CCc1nc2c(C)cc(C(=O)NCCc3ccccc3)cc2n1Cc1cccc2c1ccn2-c1ccccc1C(=O)O | 4.8 | 3.5 | – | – | – | –
CCCCc1nc(Cl)c(CO)n1Cc1ccc(-c2ccccc2-c2nnn[nH]2)cc1 [LOSARTAN] | 14.6 | 10.5 | – | – | – | Active
CCCCc1nc2c(C)cc(C(=O)NCCc3ccccc3)cc2n1Cc1cccc2c1ccn2-c1ccccc1C(=O)O | 8.5 | 6.2 | – | – | – | –
CCc1nc2c(C)cc(C(=O)NCCc3ccccc3)cc2n1Cc1ccc2c(ccn2-c2ccccc2C(=O)O)c1 | 12.1 | 8.8 | – | – | – | –
CCCc1nc2c(C)cc(C(=O)NCCc3ccccc3)cc2n1Cc1cccc2c1ccn2-c1ccccc1C(=O)O | 2.3 | 1.7 | Active | Active | 57.6 | –
